Data set [1] relates to S. aureus XU212, SA1199B, and RN4220. The data set can be described thus: MIC/MBC by broth microdilution, ranges over the antibiotic-resistant strains. In kind it is cell-based, Staphylococcus aureus. Here is the method: (§1) S. aureus CECT 976, obtained from the Spanish Type Culture Collection, was used as the standard susceptibility testing control strain. This strain has been previously employed in diverse studies to validate the antimicrobial effects of novel molecules. Additional antibiotic-resistant strains, S. aureus XU212, SA1199B, and RN4220, generously provided by S. Gibbons (University College London, London, UK) were tested. […] The SA1199B strain is characterized by its resistance to fluoroquinolones due to the overexpression of the NorA efflux pump and its ciprofloxacin resistance.
The minimum inhibitory concentration (MIC) and minimum bactericidal concentration (MBC) values of all QHSs were determined by the broth microdilution method, according to the approved M7-A7 (aerobes) standards of the Clinical and Laboratory Standards Institute (CLSI) guidelines. […] Absorbance measurements were performed at the beginning (t = 0 h) and end (t = 24 h) of the incubation period using a microtiter plate absorbance reader (BMG LABTECH FLUOstar Omega). […]
Plates were incubated at 37 °C for 24 h, and growth was visually inspected. The MBC was determined as the lowest concentration of compound in which the total inhibition of growth on solid medium was observed (no colony forming units (CFUs) were detected). […]
On the technique in general: Dilution methods test growth across graded concentrations, often in twofold steps.

A further data set deals with S. aureus CECT 976. Description: MIC/MBC by broth microdilution, S. aureus CECT 976. In kind it is cell-based. The conditions noted are these: Staphylococcus aureus, CECT976, S. aureus CECT 976, broth microdilution; for MIC: 24 h, 37 °C, read-out: MIC; for MBC: plated on PCA, read-out: MBC.
The subject of the next data set is HepG2 cells. Description: Cytotoxicity by neutral red (NR) uptake. In kind it is cell-based, human. Conditions: for NR uptake (lysosomal activity), % of control: HepG2, 24 h; for safety profile (MIC correlated with in vitro human cellular data): concentrations equal to or below 2 µg/mL. Here is the method:
The evaluation of the cytotoxicity effects of QHSs was performed using hepatocellular carcinoma (HepG2) cells. […] The cells used for all experiments were taken between the 9th and 13th passages, to avoid phenotypic changes.
The cytotoxicity profile of the compounds under study was evaluated in HepG2 cells (2.5 × 10^5 cells/mL) seeded in 96-well plates. […] Control experiments were performed for viability endpoints by adding the vehicle (medium with 0.1% DMSO) instead of the compound solution.
In the NR uptake assay, following a 24 h incubation period with the test compounds, the cell culture medium was aspirated, and fresh medium containing 150 µL of the dye (at a concentration of […]) was added to the cells. […] After incubation, the cell culture medium was discarded, and a mixture of absolute ethanol and distilled water (1:1) containing 5% acetic acid was added to extract the dye accumulated within the lysosomes of viable cells. The absorbance at 540 nm was measured using a microplate reader (Synergy HTX Multi-Mode Reader—BioTek, Winooski, VT, USA).
For all assays, results are expressed as a percentage of the control (nontreated cells), taken as 100%.

For the next data set, the system named is S. aureus SA1199B. Description: MIC/MBC by broth microdilution, S. aureus SA1199B. Type of data set: cell-based. Conditions: Staphylococcus aureus. Here is the method:
as §1
(§2) The minimum inhibitory concentration (MIC) and minimum bactericidal concentration (MBC) values of all QHSs were determined by the broth microdilution method, according to the approved M7-A7 (aerobes) standards of the Clinical and Laboratory Standards Institute (CLSI) guidelines. Overnight cell cultures of S. aureus, in the exponential phase of growth, were adjusted to an optical density (OD) of 0.132 ± 0.02 (λ = 600 nm). Then, a volume of 180 µL of the cell suspension was added to sterile, flat, clear-bottomed polystyrene (PS) 96-well microtiter plates (VWR—Radnor, PA, USA), already containing 20 µL of each QHS under study at concentrations ranging from 0.0625 to 64 µg/mL. In the end, the volume of each compound never exceeded 10% (v/v) of the well volume. Microtiter plates were then incubated for 24 h at 37 °C under agitation (150 rpm; INCU-Line IL 150R incubator). Absorbance measurements were performed at the beginning (t = 0 h) and end (t = 24 h) of the incubation period using a microtiter plate absorbance reader (BMG LABTECH FLUOstar Omega). Bacterial suspensions with DMSO and without QHSs were used as negative controls. […] All tests were performed with six replicates and a minimum of three independent repeats.
(§3) Plates were incubated at 37 °C for 24 h, and growth was visually inspected. The MBC was determined as the lowest concentration of compound in which the total inhibition of growth on solid medium was observed (no colony forming units (CFUs) were detected). All tests were performed in triplicate, and with a minimum of three independent repeats.

The subject of the next data set is S. aureus XU212. Description: MIC/MBC by broth microdilution, S. aureus XU212. In kind it is cell-based. The conditions noted are these: Staphylococcus aureus. Here is the method:
as §1, §2, §3

A short description of data set [2]: Chromatographic hydrophobicity index (CHI) by UHPLC. Type of data set: physicochemical. The conditions noted are these: for CHI: LC/UV at pH 2.6, calculated from retention time with the calibration line; for chromatographic logP: back-calculated from CHI at pH 2.6: CHI LogP = 0.047 × CHI + 0.36 × HBC − 1.10. How it is done:
The chromatographic hydrophobicity index (CHI) values were determined using the retention times (tR) of the samples under study and of a mixture of standard compounds on a UHPLC NEXERA SERIES LC-40 with a Luna C18 (2) column of 150 × 4.6 mm, 5 μm (Phenomenex, Torrance, CA, USA). Stock solutions of the test compounds (10 mM) were prepared in dimethyl sulfoxide (DMSO, 99.9%; Carlo Erba) and diluted in acetonitrile/water (1:1) to obtain a final concentration of 500 μM. The mobile phase A was 1.0% (v/v) aqueous acetic acid solution (pH = 2.6), and the mobile phase B was acetonitrile. The following gradient programme was applied: 1–7 min 0–100% B, 7–17 min 100% B, 17–19 min 100–0% B, 1 mL/min flow; rt, injection volume 40 μL.
A calibration line was obtained using a mixture of the following compounds: benzimidazole, theophylline, paracetamol, caffeine, colchicine, carbamazepine, indole, propiophenone, butyrophenone, valerophenone, and heptanophenone (Table S1 and Figure S50, Supplementary Materials). The experimental CHI values of the compounds tested at pH 2.6 were then converted to the logarithm of octanol/water partition coefficient (CHI LogP) values using Equation (1). CHI LogP = 0.047 × CHI + 0.36 × HBC − 1.10 (1) where HBC is the hydrogen bond donor count.

A word on the MIC: it is the lowest concentration found to suppress growth. The term MBC denotes the smallest concentration meeting the test's criterion for killing. In general, chromatographic logP refers to a lipophilicity value derived from retention on a column.

`CCCCCCCCCCCCCC[n+]1cccc2ccccc21.[Br-]` [Compound 5e, 1-Tetradecylquinolin-1-ium bromide]: the “MBC values, range over strains” value in data set [1] was 8 µg/mL. Also, the minimum inhibitory concentration (MIC) in the data set with S. aureus CECT 976 came out at 2 µg/mL; against S. aureus SA1199B it was 4 µg/mL; in the data set on S. aureus XU212, 8 µg/mL. Also, the minimal bactericidal concentration (MBC) in the data set with S. aureus CECT 976, against S. aureus SA1199B and with S. aureus XU212 was 8 µg/mL each time. Moreover, the “NR uptake (lysosomal activity), % of control” value (“NR uptake … % of control” for short) with HepG2 cells (2 µg/mL) is 88.20 ± 3.101% (****); in the data set on HepG2 cells (16 µg/mL), 12.06 ± 2.988% (****); in the data set with HepG2 cells (32 µg/mL), 14.38 ± 4.045% (****). Also, the “safety profile (MIC correlated with in vitro human cellular data)” value (from here on “safety profile”) with HepG2 cells is given as “favourable safety profile”. Also, in data set [2], the CHI is reported as 88.00. Moreover, the chromatographic logP in data set [2] was 3.04.
As to `CCCCCCCCCCCCCC[n+]1ccc2ccccc2c1.[Br-]` [Compound 3e, 2-Tetradecylisoquinolin-2-ium bromide], the MIC was determined as 2 µg/mL in the data set on S. aureus CECT 976, 2 µg/mL against S. aureus SA1199B and 4 µg/mL in the data set on S. aureus XU212. Further, the MBC in the data set on S. aureus CECT 976, against S. aureus SA1199B and against S. aureus XU212 was 8 µg/mL in each case. For the same molecule, the figures for the “NR uptake … % of control” value with HepG2 cells (2 µg/mL), in the data set with HepG2 cells (16 µg/mL) and in the data set on HepG2 cells (32 µg/mL) were 79.86 ± 9.893% (****), 12.68 ± 2.385% (****) and 12.77 ± 1.368% (****), respectively. Also, in data set [2], the CHI is listed as 87.98. The chromatographic logP in data set [2] was 3.04.
On to `CCCCCCCCCCCCCC[n+]1ccc(C)cc1.[Br-]` [Compound 4e, 4-Methyl-1-tetradecylpyridin-1-ium bromide], for which the MIC in the data set with S. aureus CECT 976 came out at 2 µg/mL; with S. aureus SA1199B, 8 µg/mL; in the data set with S. aureus XU212 it was 32 µg/mL. In addition, the figures for the MBC with S. aureus CECT 976, in the data set with S. aureus SA1199B and against S. aureus XU212 were 8 µg/mL, 32 µg/mL and 32 µg/mL, respectively. For the same molecule, the “NR uptake … % of control” value in the data set with HepG2 cells (16 µg/mL) is on record as 14.45 ± 2.437% (****); with HepG2 cells (32 µg/mL), 21.52 ± 19.06% (****). In addition, in the data set on HepG2 cells, the “safety profile” value was “favourable safety profile”. In data set [2], the CHI is 82.90. Besides, in data set [2], the chromatographic logP is 2.8.
For `CCCCCCCCCCCCCC[n+]1ccccc1.[Br-]` [Compound 6e, 1-Tetradecylpyridin-1-ium bromide], the MIC in the data set with S. aureus CECT 976 turned out to be 4 µg/mL; in the data set on S. aureus SA1199B it was 16 µg/mL; against S. aureus XU212, 32 µg/mL. The results for the minimum bactericidal concentration (MBC) in the data set on S. aureus CECT 976, in the data set on S. aureus SA1199B and in the data set on S. aureus XU212 were 8 µg/mL, 16 µg/mL and 64 µg/mL, respectively. Also, the figures for the “NR uptake … % of control” value in the data set on HepG2 cells (16 µg/mL) and in the data set with HepG2 cells (32 µg/mL) were 10.46 ± 3.129% (****) and 12.93 ± 3.760% (****), respectively. Besides, the CHI in data set [2] was 79.90. Moreover, the chromatographic logP in data set [2] is 2.65.
Regarding `CCCCCCCCCCCCCC[P+](c1ccccc1)(c1ccccc1)c1ccccc1` [Compound 1e, Triphenyl(tetradecyl)phosphonium bromide], the “MBC values, range over strains” value in data set [1] is 2 µg/mL. The MIC in the data set on S. aureus CECT 976 turned out to be 1 µg/mL; in the data set with S. aureus SA1199B it was 1 µg/mL; in the data set on S. aureus XU212, 2 µg/mL. Further, the MBC in the data set on S. aureus CECT 976 stood at 16 µg/mL; against S. aureus SA1199B, 2 µg/mL; against S. aureus XU212, 2 µg/mL. For the same molecule, the “NR uptake … % of control” value in the data set on HepG2 cells (1 µg/mL) was 53.86 ± 4.854% (****); with HepG2 cells (2 µg/mL) it was 72.84 ± 7.906% (****); with HepG2 cells (16 µg/mL), 12.29 ± 3.775% (****); in the data set on HepG2 cells (32 µg/mL), 13.78 ± 2.666% (****). Further, the CHI in data set [2] is 105.0. The chromatographic logP in data set [2] was 3.84.
`CCCCCCCCCCCCCC[n+]1ccn(C)c1.[Br-]` [Compound 2e, 1-Methyl-3-tetradecyl-1H-imidazol-3-ium bromide]: the MIC in the data set with S. aureus CECT 976 came to 1 µg/mL; with S. aureus SA1199B, 8 µg/mL; with S. aureus XU212, 32 µg/mL. The values for the MBC in the data set with S. aureus CECT 976, in the data set with S. aureus SA1199B and in the data set on S. aureus XU212 were 8 µg/mL, 32 µg/mL and 64 µg/mL, respectively. Moreover, the “NR uptake … % of control” value is listed as 86.71 ± 4.103% (****) in the data set with HepG2 cells (2 µg/mL), 12.85 ± 2.005% (****) in the data set with HepG2 cells (16 µg/mL) and 13.64 ± 2.776% (****) in the data set on HepG2 cells (32 µg/mL). Also, in the data set with HepG2 cells, the “safety profile” value is listed as “favourable safety profile”. Moreover, the CHI in data set [2] is given as 81.36. Besides, in data set [2], the chromatographic logP was 2.72.

Source of the values: article PMC10778626, “Efficacy of Novel Quaternary Ammonium and Phosphonium Salts Differing in Cation Type and Alkyl Chain Length against Antibiotic-Resistant Staphylococcus aureus” (International Journal of Molecular Sciences, 2023).
